Assay [1] concerns HMEC engineered to express EGFP alone (non myc). The experiment in a line: 3D spheroid assay, non myc-HMEC (CellTiterGlo3D). The assay is classed as cell-based. The note with it: Homo sapiens, 120 h, 5 days, read-out: 3D spheroid assay Code (EC50, non myc-HMEC assay). The protocol:
(§1) Human mammary epithelial cells (HMEC) were engineered to express either c-Myc tagged with EGFP or EGFP alone (non myc) (analogous but distinct from Kessler J D et al, Science. 2012 Jan. 20; 335(6066):348-53. doi: 10.1126/science.1212728; Hsu T Y et al, Nature. 2015 Sep. 17; 525(7569):384-8. doi: 10.1038/nature14985). The engineered cells were seeded at 1000 (myc) or 4000 (non myc) cells/well in a 384 ultra-low attachment plate in a total volume of 40 μL HMEC cell culture media (DMEM/F12+10% HI-FBS+15 mM HEPES+0.5 ug/ml Hydrocortisone+10 ug/ml Insulin+20 ng/ml EGF). Plates were spun at 1200 rpm for 5 minutes at room temperature to ensure that cells have gathered in the middle of the well and incubated at 37° C. for 48 hrs before firing with compounds. On Day 2 (48 h post seeding) cells were imaged (brightfield and EGFP fluorescence) using the Celigo imaging cytometer prior to firing compounds. For primary screens, compounds were added at three concentrations (1.25, 10 and 30 uM) in a volume of 120 nL using the ECHO acoustic dispenser and spun at 2000 rpm for 2 minutes at room temperature before incubating at 37° C. for 5 days. […] On Day 7, prior to measuring cell viability using CellTiterGlo3D, cells were imaged (brightfield and EGFP fluorescence) on the Celigo imaging cytometer. The CellTiterGlo3D reagent is added at 30 uL/well and incubated at room temperature for 30 mins. After 30 mins of incubation, luminescence readings were recorded using the Perkin Elmer EnVision reader.
On the technique in general: Cellular ATP, detected with luciferase, serves as a proxy for viable cell number.

Assay [2] has as its system HMEC engineered to express c-Myc tagged with EGFP. Briefly: 3D spheroid assay, myc-HMEC (CellTiterGlo3D). The assay is classed as cell-based. The note with it: Homo sapiens, 120 h, myc-HMEC, 5 days, read-out: 3D spheroid assay Code (EC50, myc-HMEC assay). The protocol:
as §1

The target of assay [3] is T1, Full length wild-type cereblon CRBN (Homo sapiens, UniProt Q96SW2).
T1 construct: Full length wild-type cereblon CRBN (80.0 nM, 10 μL) was incubated in assay buffer
T1 sequence (Q96SW2 whole entry): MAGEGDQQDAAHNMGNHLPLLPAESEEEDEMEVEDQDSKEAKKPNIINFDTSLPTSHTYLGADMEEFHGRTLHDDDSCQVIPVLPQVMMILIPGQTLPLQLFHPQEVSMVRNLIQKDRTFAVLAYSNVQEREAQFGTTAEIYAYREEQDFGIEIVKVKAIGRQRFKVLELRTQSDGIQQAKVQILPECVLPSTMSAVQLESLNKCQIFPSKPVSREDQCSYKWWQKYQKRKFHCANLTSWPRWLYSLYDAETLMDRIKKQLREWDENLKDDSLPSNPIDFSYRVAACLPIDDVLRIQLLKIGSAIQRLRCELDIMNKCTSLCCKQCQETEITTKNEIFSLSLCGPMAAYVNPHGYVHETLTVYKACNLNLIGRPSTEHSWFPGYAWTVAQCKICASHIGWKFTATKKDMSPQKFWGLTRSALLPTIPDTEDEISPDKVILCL
Briefly: Fluorescence polarization (FP) assay indicating cereblon binding. The note with it: read-out: IC50 value. In outline: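 Full-length wild-type CRBN at 80.0 nM was preincubated 30 min at room temperature with compound (12-point curve, 300–0.937 or 3000–9.3 nM) in 20 mM HEPES pH 8.0, 150 NaCl, 0.5 mM TCEP, 0.05% Tween 20. Cy5-type thalidomide-based probe added at 5 nM final; FP read after 12 h (ex 590/em 675 nm), normalized to DMSO, IC50 fitted.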

Assay [4] has as its target T2, GSPT1 (Homo sapiens, UniProt P15170+Q96SW2). The experiment in a line: GSPT1 degradation immunofluorescence assay in CAL-51 cells. Type of assay: cell-based. Details: endogenous in cells; host or cells: CAL-51 (DSMZ ACC302). The settings on record: 6 hours, Table 4, read-out: Activity for GSPT1 degradation, Code (DC50). On the procedure:
CAL-51 cells were purchased from DSMZ (cat. Number ACC302), sub-cultured in 90% Dulbecco's MEM (4.5 g/L glucose, Gibco 11965)+10% heat inactivated FBS (BioConcept, 2-01F1361) and incubated at 37° C., 5% CO2. For the assay, imaging microtiterplate Cell Carrier 96 Ultra (Perkin Elmer 6055302) were pre-coated with Fibronectin (Sigma F085, 30 μl at 0.2 μg/ml) in PBS (100 μl, Gibco 14190) for 45 min at room temperature, rinsed with PBS and CAL-51 cells (30K cells/well) were plated and let to adhere overnight. Cells were treated with compounds typically using a serial dilution ranging from 30 μM to 0.1 nM for 6 hours. Compounds were stored at 10 mM DMSO stocks. Vehicle (DMSO), positive (CC-885, 10 μM) and rescue controls (positive control plus 0.2 μM bortezomib) were also included at this stage. Cells were subsequently rinsed with PBS and fixed in 10% Formalin solution (50 μl, Sigma HT5011)) for 20 mins at room temperature. Following three consecutive PBS washes (100 μl), cells were permeabilized in 0.1% Triton X-100 in PBS (Sigma 93443, 50 μl) for 15 mins at room temperature. Following three further PBS washes, 50 μl blocking buffer (1% BSA, Sigma A4503, in PBS) was added for 45 min for signal-to-noise reduction. Primary antibody (human GSPT1, Sigma HPA052488) was diluted in blocking buffer (dil. 1/300, 35 μl/well) and incubated with the cells overnight at 4° C. After three PBS washes, Alexa-fluor 488 coupled secondary antibodies (Invitrogen, A32731, dil. 1/1000), Alexa-fluor 647-Phalloidin (Invitrogen, A22287, dil. 1/200) and DAPI (Thermo, #62248, dil. 1/1000) were diluted in blocking buffer and incubated with the samples for 2 hours at room temperature. After three final PBS washes, samples were conserved in 100 μl PBS in the dark, until measurement. Image acquisition was performed on the Operetta High-Content Imager (Perkin-Elmer). Fluorescence intensity of Alexa-Fluor 488 (GSPT1), Alexa-Fluor 647 (Actin) and DAPI (Nucleus) were measured. For the determination of GSPT1 DC50 values, a custom algorithm implemented in the PerkinElmer image analysis software Harmony-Acapella® was developed. After user-defined setting of adjustment parameters, the analysis was run identically without human intervention for all image fields. DAPI staining of the nuclei was used to determine the location of cells using standard nuclei detection modules. Segmentation artifacts were removed by threshold-based filters for area, roundness and intensity. The outline of the cells was determined analogously from the sum of the normalized, smoothed DAPI and Actin channel, starting from each nucleus. The Alexa-Fluor 488 (GSPT1) signal intensity in each cell was finally measured, in order to obtain a Mean intensity per cell. GSPT1 degradation (DC50) was calculated after normalization to controls and data import in CDD vault Database, using non-linear regression.

The target in assay [5] is T2, GSPT1. Briefly: GSPT1 degradation by Compound 345 in cancer cell lines (western blot). Type of assay: cell-based. Set-up: endogenous in cells; host or cells: MM1 S (ATCC CRL-2974). The note with it: Compound 345 treated NSCLC lines plus Bortezomib 0.2 μM. The protocol:
NCI-H1155 and ABC-1 were taken as representative of N-Myc positive NSCLC. NCI-H2023 and NCI-H441 as of N-Myc low representatives. 10A: western blotting analysis performed after 6 (NCI-H1155 and ABC-1) or 24 hr (NCI-H2023 and NCI-H441) posttreatment. […] 10B: corresponding densitometry analyses of GSPT1 normalized to GAPDH. DC50 and Dmax as indicated.
NCI-H1155 and ABC-1 were taken as representative of N-Myc high NSCLC. NCI-H2023 and NCI-H441 as of N-Myc low representatives. Left: densitometry analysis of GSPT1 normalized to GAPDH from western blotting following treatment with Compound 345 (as indicated). Right: 72 hr viability assay following treatment with Compound 345 as assessed by Cell Titer Glo. For both the GSPT1 expression plot and the cell viability plot, two Myc-driven cancer cell lines are represented by upright triangles and diamonds. Two non-Myc-driven cancer cell lines are represented by upside down triangles and circles.
NCI-H1155 and NCI-H2023 were taken as representative of N-Myc high and low NSCLC. 12A: western blot analysis probing for GSPT1 and N-Myc following treatment with Compound 345 (as indicated). Tubulin was used as a loading control. N-Myc could not be detected by western blotting in the NCI-H2023 line. 12B: Single-sample gene set enrichment analysis (ssGSEA) results for a Myc target gene set at 6 hours (left) and 24 hours (right) after treatment. ssGSEA scores were normalized to DMSOs for each cell line and averaged for three replicates. Error bars denote+/−1 s.d. across replicates.
NCI-H1836 and NCI-H1876 were taken as two representatives of L-Myc high SCLC. Western blot analysis probing for GSPT1 and L-Myc following treatment with Compound 345 as indicated. GAPDH was used as a loading control.
FIGS. 16A, 16B and 16C: Activity of Compound 345 in the c-Myc high multiple myeloma MM1S cell line. […] GAPDH was used as a loading control. […] Lenalidomide was used as a benchmark. 16C: Antiproliferative activity of Compound 345 (as indicated) following treatment with Compound 345 for 72 hr as assessed by Cell Titer Glo assay.
FIGS. 18A, 18B and 18C: Activity of Compound 345 in the c-Myc high WSU-DLCL2 lymphoma cell line. […] GAPDH was used as a loading control. 18B: Antiproliferative activity of Compound 345 (as indicated) following treatment with Compound 345 for 72 hr as assessed by Cell Titer Glo assay. […] Mice were dosed daily PO with vehicle or Compound 345 at 3, 10 mg/kg (as indicated). Tumor volumes were measured twice weekly. X-axis represents the number of days for treatment duration; y-axis represents mean tumor volume (in mm^3)±SEM. CHOP was used as a positive control for this model. Drug-free vehicle is represented by black circles; CHOP combination represented by light squares; Compound 345 3 mg/kg represented by triangles; Compound 345 10 mg/kg represented by dark squares.
FIGS. 19A, 19B, and 19C: Activity of Compound 345 in the c-Myc high DOHH-2 lymphoma cell line. […] GAPDH was used as a loading control. 19B: Antiproliferative activity of Compound 345 (as indicated) following treatment with Compound 345 for 72 hr as assessed by Cell Titer Glo assay. […] Mice were dosed daily PO with vehicle or Compound 345 at 3, 10 mg/kg (as indicated). Tumor volumes were measured twice weekly. X-axis represents the number of days for treatment duration; y-axis represents mean tumor volume (in mm^3)±SEM. CHOP was used as a positive control for this model.
Western blot analysis performed 24 hr post treatment initiation. GAPDH was used as a loading control. GSPT1 DC50 and Dmax as indicated.
A general note: In western blotting, separated proteins are transferred to a membrane and probed.

SMILES strings stand for the structures. Like-named read-outs stand apart in the source and are kept apart here.

T2 sequence (P15170 whole entry): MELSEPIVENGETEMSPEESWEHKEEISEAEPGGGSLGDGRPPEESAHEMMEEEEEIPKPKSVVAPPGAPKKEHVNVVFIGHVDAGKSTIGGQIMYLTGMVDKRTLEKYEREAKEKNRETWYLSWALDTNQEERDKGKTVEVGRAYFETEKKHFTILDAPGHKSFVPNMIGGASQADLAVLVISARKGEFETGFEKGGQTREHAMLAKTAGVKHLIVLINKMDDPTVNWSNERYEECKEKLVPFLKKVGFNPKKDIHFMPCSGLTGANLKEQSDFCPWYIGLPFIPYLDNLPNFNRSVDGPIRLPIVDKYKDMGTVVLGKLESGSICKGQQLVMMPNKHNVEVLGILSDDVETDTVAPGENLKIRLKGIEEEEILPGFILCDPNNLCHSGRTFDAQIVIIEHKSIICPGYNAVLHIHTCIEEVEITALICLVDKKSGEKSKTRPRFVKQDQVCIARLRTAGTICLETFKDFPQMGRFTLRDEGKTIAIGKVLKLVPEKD
T2 sequence (Q96SW2 whole entry): as the sequence (Q96SW2 whole entry) above
T2 sequence (Q16531 whole entry partner): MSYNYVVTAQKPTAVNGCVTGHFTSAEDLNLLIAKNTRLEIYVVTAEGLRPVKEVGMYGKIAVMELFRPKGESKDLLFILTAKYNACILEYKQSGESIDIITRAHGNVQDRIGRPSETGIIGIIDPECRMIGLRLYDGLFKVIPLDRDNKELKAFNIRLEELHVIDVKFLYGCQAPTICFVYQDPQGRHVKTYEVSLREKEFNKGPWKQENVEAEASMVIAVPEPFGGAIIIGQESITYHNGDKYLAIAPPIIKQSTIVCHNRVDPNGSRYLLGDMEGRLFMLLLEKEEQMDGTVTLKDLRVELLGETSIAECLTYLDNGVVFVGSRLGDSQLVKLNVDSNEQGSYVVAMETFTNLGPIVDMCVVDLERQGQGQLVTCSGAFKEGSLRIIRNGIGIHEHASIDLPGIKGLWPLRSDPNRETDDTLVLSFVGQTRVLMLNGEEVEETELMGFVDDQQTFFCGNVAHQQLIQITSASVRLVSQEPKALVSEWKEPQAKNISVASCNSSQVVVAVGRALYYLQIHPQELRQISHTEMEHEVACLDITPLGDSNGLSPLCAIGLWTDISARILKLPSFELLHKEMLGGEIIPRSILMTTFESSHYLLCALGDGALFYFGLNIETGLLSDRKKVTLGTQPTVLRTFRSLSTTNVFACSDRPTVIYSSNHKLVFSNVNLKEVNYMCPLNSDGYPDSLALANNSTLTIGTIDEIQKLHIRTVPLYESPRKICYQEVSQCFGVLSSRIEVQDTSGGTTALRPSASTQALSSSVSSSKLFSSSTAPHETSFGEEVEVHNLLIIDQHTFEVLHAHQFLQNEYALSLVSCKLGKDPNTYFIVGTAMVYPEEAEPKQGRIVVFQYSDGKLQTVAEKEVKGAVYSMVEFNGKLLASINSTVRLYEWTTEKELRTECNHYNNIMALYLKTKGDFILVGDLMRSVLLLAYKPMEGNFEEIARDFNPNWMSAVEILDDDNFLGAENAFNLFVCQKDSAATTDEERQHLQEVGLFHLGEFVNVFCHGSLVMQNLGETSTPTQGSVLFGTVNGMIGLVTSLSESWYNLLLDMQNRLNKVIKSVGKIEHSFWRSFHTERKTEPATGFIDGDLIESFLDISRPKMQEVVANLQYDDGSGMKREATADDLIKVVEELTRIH

A word on the EC50: it is the concentration that produces a half-maximal response. Broadly, the IC50 is the concentration needed to halve the response being measured. Regarding `COc1ccc(CCNC(=O)NCc2ccc3c(c2)C(=O)N(C2CCC(=O)NC2=O)C3)cc1` (stereo not drawn) [Compound 51], the EC50 in assay [1] is more than 10 µM; in assay [2], more than 2 µM. For the same compound, the half-maximal inhibitory concentration (IC50) in assay [3] (bounds stated) is less than 0.6 µM.
The DC50 is the concentration at which degradation of the target reaches its halfway point. Take `O=C1CCC(N2Cc3ccc(CNC(=O)Nc4ccc(Br)cc4)cc3C2=O)C(=O)N1` (stereo not drawn) [Compound 9]: the values for the EC50 in assay [1] and in assay [2] were more than 10 µM and more than 2 µM, respectively. The figures for the IC50 in assay [3] (bound stated) and in assay [3] (bounds stated) were less than 1.1 µM and less than 0.6 µM, respectively. Further, the DC50 on GSPT1 [4] is more than 0.3 µM.
In the case of `COc1ccccc1CNC(=O)NCc1ccc2c(c1)C(=O)N(C1CCC(=O)NC1=O)C2` (stereo not drawn) [Compound 60], the EC50 was more than 10 µM in assay [1] and more than 2 µM in assay [2]. In addition, the IC50 in assay [3] (bounds stated) is less than 0.6 µM.
On to `CC(C)C[C@H](NC(=O)[C@H](Cc1ccccc1)NC(=O)c1cnccn1)B(O)O` [Bortezomib, reference compound], for which the “GSPT1 level with proteasome inhibitor added” value at GSPT1 [5] was “rescued GSPT1 from degradation”.

Source of the values: patent US20240261274A1, “TREATMENT OF MYC-DRIVEN CANCERS WITH GSPT1 DEGRADERS” (MONTE ROSA THERAPEUTICS, INC., priority 2021, published 2024).
